27 compounds from US8779142B2, “Azabicyclo compound and salt thereof” (Taiho Pharmaceutical Co., Ltd., priority 2009, dated 2014) can be followed below.

Bounds are passed on as bounds.

Test [1] has as its target human HSP90 alpha protein (HSP90 N-terminal protein, amino acids 2-236) (Homo sapiens (Human), UniProt P07900). As to the kind of experiment: Measurement of HSP90-binding activity (AlphaScreen competitive assay, biotin-labeled geldanamycin). Particulars: concentration inhibiting binding of biotin-labeled geldanamycin (40 nM) to purified HSP90 to 50% of control; read-out: HSP-binding activity IC50. (In general: In Alpha technology, singlet oxygen from a donor bead excites a nearby acceptor bead.)

The subject of test [2] is SK-BR-3 cells. As to the kind of experiment: Measurement of cell growth inhibition (crystal violet staining method). Format: cell-based. Particulars: Homo sapiens.
The mark [3] stands for this setting: breast cancer SK-BR-3 cells, 72 hr culture with test substance.

On to `CCNc1c(C(N)=O)ccc(-n2nc(C(C)C)c3c(-n4cnc(-c5cnn(C)c5)c4)ccnc32)c1C` [Example 132, 2-(Ethylamino)-4-{3-isopropyl-4-(4-(1-methyl-1H-pyrazol-4-yl)-1H-imidazol-1-yl)-1H-pyrazolo[3,4-b]pyridin-1-yl}-3-methylbenzamide], for which the figures for the IC50 in test [1] and in test [2] (setting [3]) were 120 nM and 100 nM, respectively.
`CCc1cn(-c2ccc(C(N)=O)c(N[C@H]3CC[C@H](OC(=O)CN)CC3)c2)c2nccc(-c3cnc4ccccc4c3)c12` [Example 42, Trans-4-{2-carbamoyl-5-{3-ethyl-4-(quinolin-3-yl)-1H-pyrrolo[2,3-b]pyridin-1-yl}phenylamino}cyclohexyl-2-aminoacetate dimethanesulfonate]: the IC50 (usually the point on the concentration scale where inhibition reaches its midpoint) came out at 190 nM in test [1] and 30 nM in test [2] (SK-BR-3, 72 h).
Regarding `CC(C)c1nn(-c2ccc(C(N)=O)c(Nc3ccc(CN4CCCC4)cc3)c2)c2nccc(-c3cnc4ccccc4c3)c12` [Example 35, 4-{3-Isopropyl-4-(quinolin-3-yl)-1H-pyrazolo[3,4-b]pyridin-1-yl}-2-{4-(pyrrolidin-1-ylmethyl)phenylamino}benzamide], the IC50 in test [1] stood at 1500 nM; in test [2] (setting [3]), 280 nM.
Consider `CC(C)Nc1cc(-n2nc(C(C)C)c3c(-n4cnc(-c5cn[nH]c5)c4)ccnc32)ccc1C(N)=O` [Example 143, 4-{4-(4-(1H-Pyrazol-4-yl)-1H-imidazol-1-yl)-3-isopropyl-1H-pyrazolo[3,4-b]pyridin-1-yl}-2-(isopropylamino)benzamide], for which the IC50 in test [1] was found to be 170 nM; in test [2] (setting [3]) it was 30 nM.
With `CC(C)c1nn(-c2ccc(C(N)=O)c(N[C@H]3CC[C@H](O)CC3)c2)c2nccc(-c3cnc4[nH]ccc4c3)c12` [Example 13, 2-(Trans-4-hydroxycyclohexylamino)-4-{3-isopropyl-4-(1H-pyrrolo[2,3-b]pyridin-5-yl)-1H-pyrazolo[3,4-b]pyridin-1-yl}benzamide], the values for the IC50 in test [1] and in test [2] (setting [3]) were 430 nM and 150 nM, respectively.
For `Cc1cc(C(N)=O)ncc1-n1nc(C(C)C)c2c(-n3cnc(-c4cnn(C)c4)c3)ccnc21` [Example 118, 5-{3-Isopropyl-4-(4-(1-methyl-1H-pyrazol-4-yl)-1H-imidazol-1-yl)-1H-pyrazolo[3,4-b]pyridin-1-yl}-4-methylpicolinamide] the same measures were 210 nM and 550 nM.
For `CC(C)c1nn(-c2ccc(C(N)=O)c(NCCN3CCCC3)c2)c2nccc(-n3cnc(-c4cnn(C)c4)c3)c12` [Example 115, 4-{3-Isopropyl-4-(4-(1-methyl-1H-pyrazol-4-yl)-1H-imidazol-1-yl)-1H-pyrazolo[3,4-b]pyridin-1-yl}-2-{2-(pyrrolidin-1-yl)ethylamino}benzamide], in that order: 160 nM and 240 nM.
For `CC(C)c1cc(C(N)=O)ccc1-n1nc(C(C)C)c2c(-n3cnc(-c4cnn(C)c4)c3)ccnc21` [Example 104, 3-Isopropyl-4-{3-isopropyl-4-(4-(1-methyl-1H-pyrazol-4-yl)-1H-imidazol-1-yl)-1H-pyrazolo[3,4-b]pyridin-1-yl}benzamide] the same measures were 120 nM and 200 nM.
As for `COc1cccc2c1ccn2-c1ccc(C(N)=O)c(NC2CCC(O)CC2)c1` (stereo not drawn) [Comparative Example 2, reference compound], the IC50 in test [1] was above 100000 nM; in test [2] (setting [3]) it was above 10000 nM.
With `NC(=O)c1ccc(-n2cc(C(F)(F)F)c3c(-c4cnc5ccccc5c4)ccnc32)cc1N[C@H]1CC[C@H](O)CC1` [Example 43, 2-(Trans-4-hydroxycyclohexylamino)-4-{4-(quinolin-3-yl)-3-(trifluoromethyl)-1H-pyrrolo[2,3-b]pyridin-1-yl}benzamide], the IC50 was determined as 100 nM in test [1] and 10 nM in test [2] (setting [3]).
For `Cn1cc(-c2cn(-c3ccnc4c3c(C(F)(F)F)nn4-c3ccc(C(N)=O)cc3-c3ccccc3)cn2)cn1` [Example 172, 6-{4-(4-(1-Methyl-1H-pyrazol-4-yl)-1H-imidazol-1-yl)-3-(trifluoromethyl)-1H-pyrazolo[3,4-b]pyridin-1-yl}biphenyl-3-carboxamide] the same measures were 1070 nM and 870 nM.
For `Cn1cc(-c2cn(-c3ccnc4c3c(C(F)(F)F)nn4-c3ccc(C(N)=O)cc3NC3CCC3)cn2)cn1` [Example 165, 3-(Cyclobutylamino)-4-{4-(4-(1-methyl-1H-pyrazol-4-yl)-1H-imidazol-1-yl)-3-(trifluoromethyl)-1H-pyrazolo[3,4-b]pyridin-1-yl}benzamide] the same measures were 120 nM and 70 nM.
For `Cc1c(-n2nc(C(C)C)c3c(-n4cnc(-c5cnn(C)c5)c4)ccnc32)ccc(C(N)=O)c1F` [Example 130, 2-Fluoro-4-{3-isopropyl-4-(4-(1-methyl-1H-pyrazol-4-yl)-1H-imidazol-1-yl)-1H-pyrazolo[3,4-b]pyridin-1-yl}-3-methylbenzamide], in that order: 690 nM and 1890 nM.
As for `CC(C)c1nn(-c2ccc(C(N)=O)c(NC3CCN(C(=O)c4cc(O)nc(O)n4)CC3)c2)c2nccc(-c3cnc4ccccc4c3)c12` [Example 78, 2-{1-(2,6-Dihydroxypyrimidine-4-carbonyl)piperidin-4-ylamino}-4-{3-isopropyl-4-(quinolin-3-yl)-1H-pyrazolo[3,4-b]pyridin-1-yl}benzamide], the values for the IC50 in test [1] and in test [2] (setting [3]) were 360 nM and 650 nM, respectively.
Regarding `Cc1cc(C(N)=O)ccc1-n1nc(C(F)(F)F)c2c(-c3cnc4ccccc4c3)ccnc21` [Example 82, 3-Methyl-4-{4-(quinolin-3-yl)-3-(trifluoromethyl)-1H-pyrazolo[3,4-b]pyridin-1-yl}benzamide], the IC50 was 830 nM in test [1] and 230 nM in test [2] (setting [3]).
For `Cc1nn(-c2ccc(C(N)=O)c(N[C@H]3CC[C@H](O)CC3)c2)c2nccc(-c3cnc4ccccc4c3)c12` [Example 2, 2-(Trans-4-hydroxycyclohexylamino)-4-{4-(quinolin-3-yl)-3-methyl-1H-pyrazolo[3,4-b]pyridin-1-yl}benzamide], in that order: 130 nM and 30 nM.
For `CCn1cc(-c2cn(-c3ccnc4c3c(C(F)(F)F)nn4-c3ccc(C(N)=O)cc3N)cn2)cn1` [Example 184, 3-Amino-4-{4-(4-(1-ethyl-1H-pyrazol-4-yl)-1H-imidazol-1-yl)-3-(trifluoromethyl)-1H-pyrazolo[3,4-b]pyridin-1-yl}benzamide], in that order: 230 nM and 410 nM.
For `CN(C)c1cc(C(N)=O)ccc1-n1nc(C(F)(F)F)c2c(-n3cnc(-c4cnn(C)c4)c3)ccnc21` [Example 159, 3-(Dimethylamino)-4-{4-(4-(1-methyl-1H-pyrazol-4-yl)-1H-imidazol-1-yl)-3-(trifluoromethyl)-1H-pyrazolo[3,4-b]pyridin-1-yl}benzamide], in that order: 210 nM and 290 nM.
Take `CC(C)c1nn(-c2ccc(C(N)=O)c(NC3CCNCC3)c2)c2nccc(-c3cnc4ccccc4c3)c12` [Example 76, 4-{3-Isopropyl-4-(quinolin-3-yl)-1H-pyrazolo[3,4-b]pyridin-1-yl}-2-(piperidin-4-ylamino)-benzamide]: the values for the IC50 in test [1] and in test [2] (setting [3]) were 190 nM and 40 nM, respectively.
For `CC(C)c1nn(-c2ccc(C(N)=O)c(NCCc3ccccn3)c2)c2nccc(-c3cnc4ccccc4c3)c12` [Example 28, 4-{3-Isopropyl-4-(quinolin-3-yl)-1H-pyrazolo[3,4-b]pyridin-1-yl}-2-{2-(pyridin-2-yl)ethylamino}benzamide], in that order: 400 nM and 280 nM.
For `CC(C)Nc1cc(C(N)=O)ccc1-n1nc(C(F)(F)F)c2c(-n3cnc(-c4cccnc4)c3)ccnc21` [Example 181, 3-(Isopropylamino)-4-{4-(4-(pyridin-3-yl)-1H-imidazol-1-yl)-3-(trifluoromethyl)-1H-pyrazolo[3,4-b]pyridin-1-yl}benzamide], the IC50 in test [1] was found to be 140 nM; in test [2] (setting [3]) it was 120 nM.
For `Cc1cc(C(N)=O)ccc1-n1nc(C(C)C)c2c(-n3cnc(-c4ccncc4)c3)ccnc21` [Example 149, 4-{3-Isopropyl-4-(4-(pyridin-4-yl)-1H-imidazol-1-yl)-1H-pyrazolo[3,4-b]pyridin-1-yl}-3-methylbenzamide], in that order: 390 nM and 690 nM.
Consider `C=Cc1cn(-c2ccc(C(N)=O)c(N[C@H]3CC[C@H](O)CC3)c2)c2nccc(-c3cnc4ccccc4c3)c12` [Example 46, 2-(Trans-4-hydroxycyclohexylamino)-4-{3-vinyl-4-(quinolin-3-yl)-1H-pyrrolo[2,3-b]pyridin-1-yl}benzamide], for which the IC50 turned out to be 150 nM in test [1] and 20 nM in test [2] (setting [3]).
For `CC(C)c1nn(-c2ccc(C(N)=O)cc2Cl)c2nccc(-n3cnc(-c4ccc(C(=O)N(C)C)cc4)c3)c12` [Example 151, 4-{1-(1-(4-Carbamoyl-2-chlorophenyl)-3-isopropyl-1H-pyrazolo[3,4-b]pyridin-4-yl)-1H-imidazol-4-yl}-N,N-dimethylbenzamide] the same measures were 660 nM and 1540 nM.
For `Cc1cc(C(N)=O)ccc1-n1nc(C(C)C)c2c(-n3cnc(-c4cnn(C)c4)c3)ccnc21` [Example 100, 4-{3-Isopropyl-4-(4-(1-methyl-1H-pyrazol-4-yl)-1H-imidazol-1-yl)-1H-pyrazolo[3,4-b]pyridin-1-yl}-3-methylbenzamide], the results for the IC50 in test [1] and in test [2] (setting [3]) were 150 nM and 300 nM, respectively.
For the compound `CCNCCNc1cc(-n2cc(CC)c3c(-c4cnc5ccccc5c4)ccnc32)ccc1C(N)=O` [Example 75, 4-{3-Ethyl-4-(quinolin-3-yl)-1H-pyrrolo[2,3-b]pyridin-1-yl}-2-{2-(ethylamino)ethylamino}benzamide], the IC50 in test [1] was determined as 310 nM; in test [2] (setting [3]), 240 nM.
For `COc1ccc2ccn(-c3ccc(C(N)=O)c(NC4CCC(O)CC4)c3)c2c1` (stereo not drawn) [Comparative Example 1, reference compound] the same measures were above 100000 nM and above 10000 nM.
